Data published in patent US10603357B2, “Therapeutic TREM-1 peptides” (Universite de Lorraine, priority 2004, dated 2020).

Test system: BALB/c mice
Assay: LPS-induced endotoxinemia in mice (Example 3)
Type: in vivo, mouse
Conditions: for Serum IL-1β / Serum TNF-α / Serum sTREM-1: endotoxemic mice, 100 μg
Protocol: P5 (50 μg or 100 μg) or control vector was administered 60 min before LPS.
P5 (75 μg) or control vector was administered 4 or 6 hours after LPS as indicated. […]
After approval by the local ethical committee, male Balb/C mice (20 to 23 g) were randomly grouped and treated with E. coli LPS intraperitoneally (i.p.) in combination with P5 (in 500 μl normal saline) or control vector before or after LPS challenge. In some experiments, 5 μg of an anti TREM-1 monoclonal antibody was administered i.p. one hour after LPS injection. The viability of mice was examined every hour, or animals were sacrificed at regular intervals. Serum samples were collected by cardiac puncture and assayed for TNF-α and IL-1β by ELISA (BD Biosciences), and for sTREM-1 levels by immunodot.

[1] = pre-treatment by 100 μg, 2 and 4 hours

With LQVTDSGLYRCVIYHPP [P5] the “protection against LD100 dose of LPS, delayed treatment” value (75 μg, delayed up to 4 hours after LPS) was “significant protection”, the “clinical appearance of treated mice” value (LD100 of LPS) was “remained well groomed and active, had no diarrhoea, and were lively” and the “late death over one week” value (LD100 of LPS) was “No late death occurred”. The “Serum IL-1β” value (H2) was 0.2 ± 0.1 ng/mL, the “Serum TNF-α” value (H2) was 2.4 ± 0.5 ng/mL and the “Serum sTREM-1” value (H2) was 475 ± 37 ng/mL. The “Serum IL-1β” value (H4) was 0.9 ± 0.2 ng/mL, the “Serum TNF-α” value (H4) was 0.1 ± 0.1 ng/mL and the “Serum sTREM-1” value (H4) was 243 ± 28 ng/mL. For the same sequence, the “increase of serum sTREM-1 levels compared to controls” value [1] was 2 fold, the “reduction of serum cytokines levels compared to controls” value [1] was 30% and the protection from death (single dose (50 μg or 100 μg) 60 min before LD100 of LPS) was “prevented from death in a dose-dependent manner”.
